Counter-ions that a name gives are not always drawn. Like-named read-outs stand apart in the source and are kept apart here.
Tests used:
Type in all cases: cell-based
[1] = system: Enteroc. faecalis, DU18; assay: serial dilution test, MIC; settings: tetR, novR
Description: (§1) Table 3: In-vitro activity of the A1437D Ca salt against Gram-positive bacteria in the serial dilution test indicated as the minimum inhibitory concentration (MIC)

[2] = system: Enteroc. faecalis, HM9; assay: serial dilution test, MIC; settings: novR, vanR, eryR
Description: as §1

[3] = system: Enteroc. faecalis, UC5; assay: serial dilution test, MIC; settings: ATCC 29212 novR
Description: as §1

[4] = system: Enteroc. faecium, AP9; assay: serial dilution test, MIC; settings: vanR, teiR
Description: as §1

[5] = system: Enteroc. faecium, HM3; assay: serial dilution test, MIC; settings: teiR, vanR, eryR
Description: as §1

[6] = system: Enteroc. faecium, HT12; assay: serial dilution test, MIC; settings: teiR, vanR, eryR, tetR
Description: as §1

[7] = system: Enteroc. faecium, IP2; assay: serial dilution test, MIC; settings: teiR, vanR, eryR, tetR
Description: as §1

[8] = system: Enteroc. gallinarium, HM8; assay: serial dilution test, MIC; settings: vanR, tetR
Description: as §1

[9] = system: Staph. aureus, 11CB20; assay: serial dilution test, MIC; settings: Staphylococcus aureus, oxaR, eryR, tetR
Description: as §1

[10] = system: Staph. aureus, 11DU5; assay: serial dilution test, MIC; settings: Staphylococcus aureus, novR, tetR
Description: as §1

[11] = system: Staph. aureus, 11GO64; assay: serial dilution test, MIC; settings: Staphylococcus aureus, oflR, oxaR, eryR, novR
Description: as §1

[12] = system: Staph. aureus, 11HT1; assay: serial dilution test, MIC; settings: Staphylococcus aureus, novR
Description: as §1

[13] = system: Staph. aureus, ATCC 13709; assay: serial dilution test, MIC; settings: Staphylococcus aureus, ATCC13709
Description: as §1

[14] = system: Staph. epidermidis, GO20; assay: serial dilution test, MIC; settings: Staphylococcus epidermidis, tetR
Description: as §1

[15] = system: Staph. epidermidis, GO42; assay: serial dilution test, MIC; settings: Staphylococcus epidermidis, oxaR
Description: as §1

[16] = system: Staphyloc. aureus, 11HT3; assay: serial dilution test, MIC; settings: S
Description: as §1

[17] = system: Staphyloc. coagul. negativ; assay: serial dilution test, MIC; settings: oflR, oxaR, tetR
Description: as §1

[18] = system: Streptoc. gr. G, GOCB2; assay: serial dilution test, MIC; settings: tetR, rifR, novR
Description: as §1

[19] = system: Streptoc. milleri, GR12; assay: serial dilution test, MIC; settings: S
Description: as §1

[20] = system: Streptoc. mitis, GR16; assay: serial dilution test, MIC; settings: eryR
Description: as §1

[21] = system: Streptoc. pneumoniae 30B12; assay: serial dilution test, MIC; settings: eryR
Description: as §1

[22] = system: Streptoc. pyogenes, A1F16; assay: serial dilution test, MIC; settings: eryR
Description: as §1

[23] = system: Streptoc. pyogenes, A1SJ1; assay: serial dilution test, MIC; settings: eryR
Description: as §1

[24] = system: monkey blood; settings: rhesus monkey, 3 h
Protocol: For the measurement of hemolytic activity, freshly taken, venous human, Rhesus monkey or beagle dog blood is used. The blood is collected in heparinized tubes and distributed in aliquots of 200 μl into 12 polyethylene tubes. One aliquot is treated with 200 μl of distilled water and used as a 100% standard, another is mixed with 200 μl of physiological saline solution (0.9% NaCl). 200 μl each of substance dilutions in physiological saline solution to 1600, 800, 400, 200, 100, 50, 25, 12.5, 6.25 and 3.125 mg/l are distributed into the other tubes. All tubes are carefully swung and then incubated for 3 hours at 37° C. The 100% standard is then made up with 5 ml of distilled water, the other tubes with 5 ml each of physiological saline solution, and centrifuged at 700 g for 5 minutes.
The hemolysis is determined by measurement of the absorption of the supernatant in a spectrophotometer at a wavelength of 540 nm. The absorption of the standard with complete hemolysis is set at 100%. The absorption of the test preparation dilutions and of the 0% standard are measured and indicated as a percentage of the maximally inducible hemolysis.

- MIC [1]: 0.6 µg/mL
- MIC [2]: 2.5 µg/mL
- MIC [3]: 2.5 µg/mL
- MIC [4]: 0.6 µg/mL
- MIC [5]: 0.6 µg/mL
- MIC [6]: 0.6 µg/mL
- MIC [7]: 0.6 µg/mL
- MIC [8]: 0.15 µg/mL
- MIC [9]: 0.6 µg/mL
- MIC [10]: 0.08 µg/mL
- MIC [11]: 0.6 µg/mL
- MIC [12]: 0.15 µg/mL
- MIC [13]: 0.6 µg/mL
- MIC [14]: 0.3 µg/mL
- MIC [15]: 0.3 µg/mL
- MIC [16]: 0.04 µg/mL
- MIC [17]: 0.3 µg/mL
- MIC [18]: 0.3 µg/mL
- MIC [19]: 0.3 µg/mL
- MIC [20]: 0.3 µg/mL
- MIC [21]: 0.3 µg/mL
- MIC [22]: 0.6 µg/mL
- MIC [23]: 0.6 µg/mL
SMILES: CC(C)CCCCCCC/C=C\CC(=O)N[C@@H](CC(N)=O)C(=O)N[C@@H]1C(=O)N2CCCC[C@@H]2C(=O)N[C@@H]([C@H](C)C(=O)O)C(=O)N[C@@H](CC(=O)O)C(=O)NCC(=O)N[C@@H](CC(=O)O)C(=O)NCC(=O)N[C@H]([C@@H](C)N)C(=O)N[C@@H](C(C)C)C(=O)N2CCC[C@H]2C(=O)N[C@@H]1C [A1437D Ca salt]
- in vitro hemolysis, percentage of the maximally inducible hemolysis ([24]; 12.5 mg/l): 0%
- in vitro hemolysis, percentage of the maximally inducible hemolysis ([24]; 25 mg/l): 0%
- in vitro hemolysis, percentage of the maximally inducible hemolysis ([24]; 50 mg/l): 0%
- in vitro hemolysis, percentage of the maximally inducible hemolysis ([24]; 100 mg/l): 3%
- in vitro hemolysis, percentage of the maximally inducible hemolysis ([24]; 200 mg/l): 6%
- in vitro hemolysis, percentage of the maximally inducible hemolysis ([24]; 400 mg/l): 9%
- in vitro hemolysis, percentage of the maximally inducible hemolysis ([24]; 800 mg/l): 15%
- in vitro hemolysis, percentage of the maximally inducible hemolysis ([24]; 1600 mg/l): 19%

Source: patent publication US6624143B1, “Calcium salts of lipopeptide antibiotics, method for producing same and their use” (Aventis Pharma Deutschland GmbH, priority 1998, dated 2003)
